Measurements: patent US7771956B2, “Method for detecting the presence of a phospholipid” (Brigham & Women's Hospital, Inc., priority 2003, dated 2010)
“Also recorded” adds a separate entry of the source. Each block holds one molecule with its values, some of them ahead of it.

How the values were obtained:
[1] = target: T1, bovine lactadherin (fluorescein-labeled, purified from bovine milk) (Bos taurus, UniProt Q95114); test: Equilibrium binding of fluorescein-labeled lactadherin to lipospheres (membranes on glass microspheres, flow cytometry); settings: for binding of lactadherin: lipospheres with 2% synthetic dioleoyl lipid, 20% PE, balance PC, FIG. 5A
T1 construct: from tissue; host or cells: bovine milk
T1 sequence (Q95114 19-427): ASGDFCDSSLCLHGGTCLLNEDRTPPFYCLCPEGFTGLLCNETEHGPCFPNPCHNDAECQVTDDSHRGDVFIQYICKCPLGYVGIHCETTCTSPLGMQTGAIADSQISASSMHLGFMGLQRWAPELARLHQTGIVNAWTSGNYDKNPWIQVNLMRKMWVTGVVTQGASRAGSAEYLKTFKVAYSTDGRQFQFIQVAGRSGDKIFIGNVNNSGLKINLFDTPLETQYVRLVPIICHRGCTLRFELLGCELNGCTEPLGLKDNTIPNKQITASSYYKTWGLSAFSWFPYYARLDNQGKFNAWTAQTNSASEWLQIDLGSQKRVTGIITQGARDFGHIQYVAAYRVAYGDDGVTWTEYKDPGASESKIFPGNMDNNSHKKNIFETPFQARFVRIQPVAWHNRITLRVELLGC
Experimental: (§1) Lactadherin was purified from bovine milk as previously described (Reference 1). Lactadherin, 0.2 mg in 0.2 ml phosphate-buffered saline, was concentrated 10-fold by ultrafiltration with a Centricon YM-10 (Millipore, Bedford, Mass.) followed by dilution to the starting concentration into 0.1 M sodium carbonate buffer, pH 9.0. Fluorescein isothiocyanate (Molecular Probes, Eugene, Oreg.) 6 μl of 10 mg/ml solution in DMSO, was added to lactadherin and the mixture was incubated for one hour at RT in the dark. Free fluorescein was removed by gel filtration using a micro spin column equilibrated with 0.1 M sodium carbonate, 0.1 M betaine, 0.004% Tween-80, pH 9.0 (FluoReporter FITC Protein Labeling Kit, Molecular Probes, Eugene, Oreg.). Fluorescein-labeled lactadherin was concentrated approx. 10-fold by ultrafiltration using a Centricon YM-10, and diluted to approximately the original concentration in 0.15 M NaCl, 50 mM Tris-HCl, pH 7.5. Labeling efficiency was judged by comparison of absorbance at 490 nm to absorbance at 280 nm (correcting for fluorescein absorbance at 280 nm).
Glass microspheres of 1.6 μm nominal diameter (Duke Scientific, Palo Alto, Calif.) were cleaned, size-restricted and covered with a phospholipid bilayer as previously described (Reference 17). Membranes supported by glass microspheres were washed three times in 0.15 M NaCl, 0.02 M Tris-HCl, 0.1% defatted bovine albumin, 10 μM egg PC as sonicated vesicles; stored at 4° C.; and used within 8 hours of synthesis. Fluorescein-labeled factor VIII (4 nM) was incubated with lactadherin or annexin V for 15 min at room temperature, the mixture was added to lipospheres for an additional 10 minutes, and membrane-bound fVIII was measured by flow cytometry. This procedure was performed on 150 μl aliquots with an approximate liposphere concentration of 1×10^6/ml using a Becton Dickinson FACSCalibur flow cytometer. Data acquisition was triggered by forward light scatter with all photomultipliers in the log mode. […] Mean log fluorescence was converted to linear fluorescence for values depicted in the figures. Only experiments in which the fluorescence histogram indicated a log normal distribution, as judged by inspection, were analyzed quantitatively. […]
The equilibrium binding of lactadherin to lipospheres was fitted by non-linear, least squares data analysis using the standard binding model (assuming a single class of binding sites and that the fraction of bound lactadherin was small at each concentration evaluated). […]
Fluorescein-labeled lactadherin interacted with phospholipid bilayers supported by glass microspheres (lipospheres). […] After 10 minutes, we measured bound lactadherin using flow cytometry (FIG. 1A). […]

[2] = target: T2, Recombinant human factor VIII (Homo sapiens, UniProt P00451); test: Binding of factor VIII to lipospheres; settings: lipospheres containing 4% Ptd-L-Ser; read-out: dissociation constant of factor VIII for lipospheres
T2 construct: Gift from D. Pittman, Genetics Institute, Cambridge, Mass
Description: Human factor V was obtained from Haematologic Technologies Inc. (Burlington, Vt.). Recombinant human factor VIII was a gift from D. Pittman of Genetics Institute, Cambridge, Mass. Bovine brain phosphatidylserine (Ptd-L-Ser), egg yolk phosphatidylethanolamine (PE), bovine liver phosphatidylinositol, egg sphingomyelin, egg phosphatidylcholine (PC) and dioleoyl PC were obtained from Avanti Polar Lipids (Alabaster, AL). Phospholipase D from streptomyces, phospho-L-serine phospho-D-serine, L-serine and D-serine were obtained from Sigma.
Factor VIII and factor V were labeled with fluorescein maleimide (Molecular Probes, Eugene, Oreg.) as previously described (References 17 and 37). Protein concentration of factor VIII was determined using a Micro-BCA Assay (Pierce, Rockford, Ill.) using bovine albumin as a standard.
Glass microspheres of 1.6 μm nominal diameter (Duke Scientific, Palo Alto, Calif.) were cleaned, size-restricted and covered with a phospholipid bilayer as previously described (Reference 17). […] Fluorescein-labeled factor VIII (4 nM) was incubated with lactadherin or annexin V for 15 min at room temperature, the mixture was added to lipospheres for an additional 10 minutes, and membrane-bound fVIII was measured by flow cytometry. […] Mean log fluorescence was converted to linear fluorescence for values depicted in the figures. […]

[3] = target: T1, bovine lactadherin (fluorescein-labeled, purified from bovine milk); test: Competition of phospholipid vesicles with lipospheres for fluorescein-labeled lactadherin; type: binding; settings: for support of lactadherin binding: vesicles lacking Ptd-L-Ser, FIG. 4B; for effect on number of binding sites or affinity for lactadherin: extruded vesicles, 0-20% PE, 1% Ptd-L-Ser
Experimental: as §1
Phospholipid vesicles were prepared by evaporating chloroform from the desired phospholipids, resuspending in methylene chloride and re-evaporating twice under argon. Large multilamellar vesicles were prepared by gently swirling tris-buffered saline (50 mM Tris, 150 mM NaCl, pH 7.4) over the dried lipid suspension until all lipid was suspended. Some of the large multilamellar vesicles were then utilized to prepare small unilamellar vesicles by sonication in a high intensity bath sonicator (Laboratory Supplies, Inc. Hicksville, N.Y.) under argon until visually clear (approx. 20 min.). Large unilamellar vesicles were made by extruding large multilamellar vesicle suspensions 20 times through […] polycarbonate membranes (Millipore, Bedford, Mass.) in a High Pressure Extrusion Device (Sciema Technical Services, Vancouver, BC, Canada) under argon as described previously (Reference 39). Phospholipid concentration was determined by phosphorus assay (Reference 40). Vesicles were used fresh, or 1 ml aliquots were quick-frozen in liquid nitrogen, stored at −80° C., and thawed at 37° C.
Glass microspheres of 1.6 μm nominal diameter (Duke Scientific, Palo Alto, Calif.) were cleaned, size-restricted and covered with a phospholipid bilayer as previously described (Reference 17). Membranes supported by glass microspheres were washed three times in 0.15 M NaCl, 0.02 M Tris-HCl, 0.1% defatted bovine albumin, 10 μM egg PC as sonicated vesicles; stored at 4° C.; and used within 8 hours of synthesis. Fluorescein-labeled factor VIII (4 nM) was incubated with lactadherin or annexin V for 15 min at room temperature, the mixture was added to lipospheres for an additional 10 minutes, and membrane-bound fVIII was measured by flow cytometry. This procedure was performed on 150 μl aliquots with an approximate liposphere concentration of 1×10^6/ml using a Becton Dickinson FACSCalibur flow cytometer. Data acquisition was triggered by forward light scatter with all photomultipliers in the log mode. Noise was reduced during analysis by eliminating events with forward and side scatter values different from those characteristic of the lipospheres. Mean log fluorescence was converted to linear fluorescence for values depicted in the figures. Only experiments in which the fluorescence histogram indicated a log normal distribution, as judged by inspection, were analyzed quantitatively. […]

[4] = target: T1, bovine lactadherin (fluorescein-labeled, purified from bovine milk); test: Competition of soluble head group for fluorescein-lactadherin binding to lipospheres (flow cytometry); settings: for inhibition of lactadherin binding: concentrations as high as 0.35 M
Experimental: Flow Cytometry Phospholipid Binding Assay
Glass microspheres of 1.6 μm nominal diameter (Duke Scientific, Palo Alto, Calif.) were cleaned, size-restricted and covered with a phospholipid bilayer as previously described (Reference 17). Membranes supported by glass microspheres were washed three times in 0.15 M NaCl, 0.02 M Tris-HCl, 0.1% defatted bovine albumin, 10 μM egg PC as sonicated vesicles; stored at 4° C.; and used within 8 hours of synthesis. […] This procedure was performed on 150 μl aliquots with an approximate liposphere concentration of 1×10^6/ml using a Becton Dickinson FACSCalibur flow cytometer. Data acquisition was triggered by forward light scatter with all photomultipliers in the log mode. Noise was reduced during analysis by eliminating events with forward and side scatter values different from those characteristic of the lipospheres. Mean log fluorescence was converted to linear fluorescence for values depicted in the figures. Only experiments in which the fluorescence histogram indicated a log normal distribution, as judged by inspection, were analyzed quantitatively. Flow cytometry experiments were performed in 0.14 M NaCl, 0.02 M Trizma-HCl, 0.1% bovine albumin, pH 7.5 with CaCl2 as specified for individual experiments.
Fluorescein-labeled lactadherin was incubated with 10^6 lipospheres/ml in Tris-buffered saline, 1.5 mM CaCl2, 0.1% BSA for 10 min. prior to evaluation of bound lactadherin by flow cytometry. The final concentrations of lactadherin were varied to estimate the affinity and stoichiometry of bound lactadherin.
To estimate the stereoselective affinity of lactadherin for the L-serine containing head group of Ptd-L-Ser, we performed binding inhibition studies (FIG. 5B).

[5] = test system: platelets; test: Lactadherin binding to A23187-stimulated platelets (flow cytometry); type: cell-based; settings: Platelet; 0.25 μM A23187 vs. unstimulated platelets; read-out: net increase of fluorescence (bound lactadherin)
Experimental: We asked whether platelets have a stimulated state when they bind lactadherin but not annexin V, consistent with the hypothesis that platelets have the capacity to regulate PS exposure at a level less than 2.5% PS (FIG. 8A-C). Platelets were incubated with fluorescein labeled lactadherin and Alexa Fluor 647 labeled annexin V. Because competition of either protein for the other's binding sites was <20% at these concentrations (FIG. 7C, 7D) we utilized both proteins simultaneously. The gain on the flow cytometer was set so that the intrinsic fluorescence of unstimulated platelets placed the population in the lower left quadrant of the display (FIG. 8A). […] Comparison with the unstimulated state indicates a net increase of fluorescence to approximately 3-fold. (FIG. 8B). The cross-hair allows comparison of modal fluorescence values for resting platelets vs. stimulated platelets.

[6] = test system: platelets; test: Loss of NBD-PS fluorescence from stimulated platelets (PS exposure); type: cell-based; settings: 10 μM A23187, 8 min
Description: In order to estimate the rate and extent of PS exposure on the platelet plasma membrane we utilized fluorescence-labeled PS (Reference 62). Prior reports indicate that platelets translocate NBD-PS to the inner leaflet of the plasma membrane, like unlabeled PS. When stimulated platelets transfer NBD-PS to the outer leaflet of the plasma membrane it is rapidly exchanged into delipidated albumin that is present in the buffer. Thus, translocation of NBD-PS to the outer plasma membrane causes a net loss in cell fluorescence. NBD-PS was loaded into membranes of resting platelets from donor vesicles prior to platelet purification. The rate and extent of platelet fluorescence loss provide an estimate of the rate and extent of plasma membrane PS exposure.
During the first minute after addition of TRAP the fluorescence loss was 12±1.8% vs. 5±2.5% for control platelets. Stimulation with 10 μM A23187 led to the same rate of fluorescence loss during the first minute but the rate was maintained so that after 8 min. >90% of NBD fluorescence was lost (FIG. 12B inset).

T2 sequence (P00451 20-2351): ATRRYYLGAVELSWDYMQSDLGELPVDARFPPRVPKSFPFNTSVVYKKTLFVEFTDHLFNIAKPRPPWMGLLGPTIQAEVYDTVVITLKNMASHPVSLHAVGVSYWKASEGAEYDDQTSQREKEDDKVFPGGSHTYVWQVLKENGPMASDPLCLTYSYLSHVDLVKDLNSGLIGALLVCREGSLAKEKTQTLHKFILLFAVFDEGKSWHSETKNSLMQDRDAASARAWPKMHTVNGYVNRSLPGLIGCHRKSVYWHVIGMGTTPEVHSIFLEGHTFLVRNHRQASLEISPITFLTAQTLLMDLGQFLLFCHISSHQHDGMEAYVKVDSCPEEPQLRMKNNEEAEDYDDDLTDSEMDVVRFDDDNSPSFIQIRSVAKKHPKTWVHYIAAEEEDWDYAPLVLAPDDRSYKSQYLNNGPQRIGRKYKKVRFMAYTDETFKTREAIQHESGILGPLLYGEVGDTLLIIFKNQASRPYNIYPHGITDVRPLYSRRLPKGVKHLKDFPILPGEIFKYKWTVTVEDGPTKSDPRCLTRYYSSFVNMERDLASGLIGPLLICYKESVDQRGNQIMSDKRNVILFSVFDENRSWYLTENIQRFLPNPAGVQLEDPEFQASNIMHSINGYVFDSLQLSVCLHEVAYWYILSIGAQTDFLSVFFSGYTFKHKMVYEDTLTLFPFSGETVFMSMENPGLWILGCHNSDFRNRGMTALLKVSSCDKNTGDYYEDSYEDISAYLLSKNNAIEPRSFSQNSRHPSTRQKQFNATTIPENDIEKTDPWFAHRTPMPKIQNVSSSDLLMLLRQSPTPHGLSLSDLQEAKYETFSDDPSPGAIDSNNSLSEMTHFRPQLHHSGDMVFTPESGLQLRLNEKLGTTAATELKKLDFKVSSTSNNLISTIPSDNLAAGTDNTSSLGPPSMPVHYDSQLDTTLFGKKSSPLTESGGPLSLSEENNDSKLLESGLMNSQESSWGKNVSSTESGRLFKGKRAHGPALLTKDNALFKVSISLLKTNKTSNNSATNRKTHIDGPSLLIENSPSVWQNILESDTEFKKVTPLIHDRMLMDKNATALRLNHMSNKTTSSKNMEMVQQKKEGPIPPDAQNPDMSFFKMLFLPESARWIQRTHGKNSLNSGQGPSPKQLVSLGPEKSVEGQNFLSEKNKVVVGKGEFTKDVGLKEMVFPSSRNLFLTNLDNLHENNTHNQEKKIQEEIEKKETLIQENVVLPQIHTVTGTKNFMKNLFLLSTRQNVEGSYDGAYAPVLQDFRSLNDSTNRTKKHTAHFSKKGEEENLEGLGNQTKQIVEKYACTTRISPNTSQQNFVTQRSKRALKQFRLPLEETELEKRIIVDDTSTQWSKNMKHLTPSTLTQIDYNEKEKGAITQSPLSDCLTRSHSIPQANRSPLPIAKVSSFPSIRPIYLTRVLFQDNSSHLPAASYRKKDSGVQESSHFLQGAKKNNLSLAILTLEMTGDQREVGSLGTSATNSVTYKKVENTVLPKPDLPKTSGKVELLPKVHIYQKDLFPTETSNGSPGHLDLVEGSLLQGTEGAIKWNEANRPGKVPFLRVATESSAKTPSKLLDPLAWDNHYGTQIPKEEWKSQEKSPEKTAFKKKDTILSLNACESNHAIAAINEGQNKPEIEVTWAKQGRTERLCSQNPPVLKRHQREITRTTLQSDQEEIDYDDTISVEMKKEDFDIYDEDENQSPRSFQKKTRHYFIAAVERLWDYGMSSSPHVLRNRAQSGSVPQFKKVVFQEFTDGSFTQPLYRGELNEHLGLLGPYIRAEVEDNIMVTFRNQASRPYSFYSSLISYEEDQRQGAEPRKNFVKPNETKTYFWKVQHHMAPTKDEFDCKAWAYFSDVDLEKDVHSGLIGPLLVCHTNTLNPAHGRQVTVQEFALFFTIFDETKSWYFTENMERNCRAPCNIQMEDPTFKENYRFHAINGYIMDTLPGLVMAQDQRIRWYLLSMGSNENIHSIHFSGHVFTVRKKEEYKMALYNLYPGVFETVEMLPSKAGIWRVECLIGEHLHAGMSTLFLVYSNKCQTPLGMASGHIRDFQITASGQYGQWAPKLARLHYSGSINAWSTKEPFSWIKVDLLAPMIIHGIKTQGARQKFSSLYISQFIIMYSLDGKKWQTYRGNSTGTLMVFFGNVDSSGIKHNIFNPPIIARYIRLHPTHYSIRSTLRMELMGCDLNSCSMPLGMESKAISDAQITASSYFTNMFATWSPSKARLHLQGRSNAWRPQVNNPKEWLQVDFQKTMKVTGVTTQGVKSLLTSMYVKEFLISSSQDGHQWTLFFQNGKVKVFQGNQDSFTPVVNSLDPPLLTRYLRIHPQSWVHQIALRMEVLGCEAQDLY

Molecule: CCCCCCCC/C=C\CCCCCCCC(=O)OC[C@H](COP(=O)(O)OC[C@H](N)C(=O)O)OC(=O)CCCCCCC/C=C\CCCCCCCC [dioleoyl Ptd-L-Ser]
binding of lactadherin [1]: Lactadherin bound to membranes; also recorded: bound lactadherin with high affinity, comparable to Ptd-L-Ser from biologic sources

apparent KD, 1% Ptd-L-Ser vs. 4% Ptd-L-Ser membranes (fold difference) ([1]; lipospheres of 1% vs. 4% Ptd-L-Ser): ≤ 2 fold
Kd ([1]; membranes Ptd-L-Ser:PE:PC 4:20:76 on glass microspheres, 10 min, read-out: KD (apparent)): 3.3 ± 0.4 nM
Kd [2]: 4.8 nM
Kd ([3]; sonicated vesicles of 16% Ptd-L-Ser, n<60, read-out: KD (lower limit)): > 0.2 nM
Molecule: phosphatidylserine [Ptd-L-Ser]

Molecule: N[C@H](COP(=O)(O)O)C(=O)O [phospho-D-serine]
inhibition of lactadherin binding [4]: ≤ 25%
fold less effective as an inhibitor (vs. phospho-L-serine) ([4]; inhibition of lactadherin binding to lipospheres): at least 4 fold

Molecule: CCCCCCCC/C=C\CCCCCCCC(=O)OC[C@H](COP(=O)(O)OC[C@@H](N)C(=O)O)OC(=O)CCCCCCC/C=C\CCCCCCCC [dioleoyl Ptd-D-Ser]
binding of lactadherin ([1]; listed as Ptd-D-Ser): did not support binding of lactadherin above the level supported by control membranes of PE:PC 20:80

Molecule: phosphatidylinositol
support of lactadherin binding [3]: does not support high affinity binding of lactadherin; also recorded: supported low affinity binding of lactadherin

Molecule: CNc1ccc2oc(C[C@H]3O[C@@]4(CC[C@H]3C)O[C@H]([C@H](C)C(=O)c3ccc[nH]3)[C@H](C)C[C@H]4C)nc2c1C(=O)O [A23187]
fold induction at 0.25 µM [5]: ~3
NBD fluorescence lost [6]: > 90%

Molecule: phosphatidylcholine [PC]
support of lactadherin binding [3]: supported low affinity lactadherin binding

Molecule: phosphatidylethanolamine [PE]
effect on number of binding sites or affinity for lactadherin [3]: did not influence the apparent number of binding sites or affinity for lactadherin
effect on number of binding sites or affinity for lactadherin ([3]; listed as phosphatidylethanolamine): did not enhance the apparent affinity or number of lactadherin binding sites

inhibition of lactadherin binding [4]: ≤ 25%
Molecule: phosphate
